Data from US20250206761A1, “HALOINDOLE MACROCYCLIC COMPOUNDS FOR THE TREATMENT OF CANCER” (Hoffmann-La Roche Inc., priority 2022, published 2025).

What was measured:
[1] = tested on: phosphorylation of ERK, KRAS G12D in AGS cells; assay: pERK inhibition assay, KRAS G12D; type: cell-based, human; conditions: Homo sapiens, 4 hours
Method: This assay is to measure the ability of test compounds in inhibiting the phosphorylation of ERK, the downstream signaling of KRAS G12C in NCJ-H358 cells, KRAS G12D in AGS cells, and KRAS G12V in SW620. NCJ-H358 (ATCC-CRL5807) cells, AGS (ATCC-CRL-1739) cells, SW620 (ATCC-CCL-227) cells were all grown and maintained using RPMI-1640 medium (Thermo Fisher Scientific) with 10% fetal bovine serum and 1% penicillin/streptomycin. On the day prior to compound addition, cells were plated in tissue culture-treated 96 well plates (Corning-3699) at a density of 30,000 cell/well, 20,000 cell/well, 30,000 cell/well for NCJ-H358, AGS and SW620 respectively, and allowed for attachment overnight. Diluted compounds were then added in a final concentration of 0.5% DMSO. After 4 hours of incubation, the medium was removed, 100 μL of 4% formaldehyde was added, and the assay plates were incubated at room temperature for 20 minutes. The plates were then washed once with phosphate buffered saline (PBS), and permeabilized with 100 μL of chilled methanol for 10 minutes. Non-specific antibody binding to the plates was blocked using 50 μL 1×BSA blocking buffer (Thermo-37520, 10-fold dilution by Phosphate-Buffered Saline Tween (PBST) for at least 1 hour at room temperature.
The amount of phosphor-ERK was determined using an antibody specific for phosphorylated form of ERK. Primary antibody (pERK, CST-4370, Cell Signaling Technology) was diluted 1:300 in blocking buffer, with 50 μL aliquoted to each well, and incubated overnight at 4′° C. Cells was washed five times for 5 minutes with PBST. Secondary antibody ([…] anti-rabbit IgG, CST-7074, Cell Signaling Technology) was diluted 1:1000 in blocking buffer, and 50 μL was added to each well and incubated 1-2 hrs at room temperature. Cells was washed 5 times for 5 minutes with PBST, 100 μL TMB ELISA substrate (abcam-ab171523) were added and gently shake for 20 minutes. 50 μL stop solution (abcam-ab171529) were added, and then read the signal (OD450) by EnVision.
IC50 was determined by fitting a 4-parameter sigmoidal concentration response model.

[2] = tested on: AGS (ATCC-CRL-1739) cells; assay: Cell viability assay, G12D (AGS); type: cell-based, human; conditions: Homo sapiens, KRAS cell viability, 72 hrs, Cell Counting Kit-8
In short: (§1)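 72-hr compound treatment, 0.5% DMSO final; NCI-H358 seeded 5,000 cells/well, AGS and SW620 2,000 cells/well. Endpoint: CCK-8, 2-hr development, OD450 minus OD650.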

[3] = biological target: KRAS G12V binding to BRAF (Homo sapiens (Human), UniProt P01116+P62937, G12V); assay: KRAS-BRAF with CYPA (500 nM) interaction assay (TR-FRET), G12V; type: biochemical
Sequence of KRAS G12V binding to BRAF (P01116-2 other isoform, or with tags, fused parts or gaps G12V): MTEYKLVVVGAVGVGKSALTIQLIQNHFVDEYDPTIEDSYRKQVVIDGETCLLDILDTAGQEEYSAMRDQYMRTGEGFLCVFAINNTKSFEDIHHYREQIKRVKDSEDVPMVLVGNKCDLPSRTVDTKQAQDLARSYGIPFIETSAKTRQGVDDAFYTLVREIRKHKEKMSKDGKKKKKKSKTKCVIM
Sequence of KRAS G12V binding to BRAF (P62937 whole entry): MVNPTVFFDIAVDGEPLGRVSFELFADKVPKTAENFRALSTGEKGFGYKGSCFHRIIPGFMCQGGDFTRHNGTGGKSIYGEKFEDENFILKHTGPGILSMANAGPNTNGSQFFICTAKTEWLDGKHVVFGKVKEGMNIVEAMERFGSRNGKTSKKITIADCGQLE
In short: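 A TR-FRET assay measured how compound, in the presence of CYPA, disrupts binding of GMPPNP-loaded 6His-KRAS G12V to BRAF. The buffer contained 25 mM HEPES PH=7.4, 0.002% Tween20, 0.1% BSA, 100 mM NaCl, 5 mM MgCl2 and 10 μM GMPPNP. Compounds ran as a 16-point 3-fold dilution series from 10 μM for 3 hours.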

[4] = tested on: phosphorylation of ERK, KRAS G12V in SW620; assay: pERK inhibition assay, KRAS G12V; type: cell-based, human; conditions: Homo sapiens, SW-620, SW620, 4 hours
In short: (§2)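 Cells plated the day before (NCJ-H358 30,000, AGS 20,000, SW620 30,000 per well), then exposed to compound for 4 h at 0.5% DMSO final. Fixed, permeabilized, and phospho-ERK detected by in-cell ELISA (anti-pERK, HRP secondary, TMB, OD450); IC50 from 4-parameter sigmoidal fit.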

[5] = tested on: phosphorylation of ERK, KRAS G12C in NCJ-H358 cells; assay: pERK inhibition assay, KRAS G12C; type: cell-based, human; conditions: Homo sapiens, 4 hours
In short: as §2

[6] = tested on: NCI-H358 (ATCC-CRL5807) cells; assay: Cell viability assay, G12C (NCI-H358); type: cell-based, human; conditions: Homo sapiens; KRAS cell viability, NCI-H358, 72 hrs, Cell Counting Kit-8
In short: as §1

SW620 (ATCC-CCL-227) = assay: Cell viability assay, G12V (SW620); type: cell-based, human; conditions: Homo sapiens, SW-620; KRAS cell viability, SW620, 72 hrs, Cell Counting Kit-8
In short: as §1

KRAS G12C-BRAF complex = KRAS G12C-BRAF complex (Homo sapiens (Human), UniProt P01116+P62937, G12C); assay: KRAS-BRAF with CYPA (500 nM) interaction assay (TR-FRET), G12C; type: biochemical
Sequence of KRAS G12C-BRAF complex (P01116-2 other isoform, or with tags, fused parts or gaps G12C): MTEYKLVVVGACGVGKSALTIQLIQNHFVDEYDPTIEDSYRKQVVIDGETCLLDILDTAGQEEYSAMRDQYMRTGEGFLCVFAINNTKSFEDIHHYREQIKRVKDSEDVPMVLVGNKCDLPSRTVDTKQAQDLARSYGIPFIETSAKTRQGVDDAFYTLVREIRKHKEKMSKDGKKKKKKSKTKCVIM
Sequence of KRAS G12C-BRAF complex (P62937 whole entry): as the sequence (P62937 whole entry) above

[7] = biological target: KRAS G12D binding to BRAF (Homo sapiens (Human), UniProt P01116+P62937, G12D); assay: KRAS-BRAF with CYPA (500 nM) interaction assay (TR-FRET), G12D; type: biochemical
Sequence of KRAS G12D binding to BRAF (P01116-2 other isoform, or with tags, fused parts or gaps G12D): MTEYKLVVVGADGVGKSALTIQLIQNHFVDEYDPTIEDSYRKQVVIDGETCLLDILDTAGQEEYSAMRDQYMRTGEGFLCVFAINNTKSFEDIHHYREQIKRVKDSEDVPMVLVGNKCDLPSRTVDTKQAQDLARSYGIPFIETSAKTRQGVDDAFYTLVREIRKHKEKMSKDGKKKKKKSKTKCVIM
Sequence of KRAS G12D binding to BRAF (P62937 whole entry): as the sequence (P62937 whole entry) above

SMILES	IC50 [1]	IC50 [2]	IC50 [3]	IC50 [4]	IC50 [5]	IC50 [6]	IC50 (SW620 (ATCC-CCL-227))	IC50 (KRAS G12C-BRAF complex)	IC50 [7]
CCn1c(-c2cc(N3CCN(C)CC3)cnc2[C@H](C)OC)c2c3cc(c(F)cc31)-c1csc(n1)C[C@H](NC(=O)[C@H](C(C)C)N1CC[C@]3(CCN(C(=O)[C@H](F)Cl)C3)C1=O)C(=O)N1CCC[C@H](N1)C(=O)OCC(C)(C)C2 (atropisomer, axis not shown; (M)) [Example 31, (2S)-2-[(5S)-7-[(2R)-2-chloro-2-fluoro-acetyl]-1-oxo-2,7-diazaspiro[4.4]nonan-2-yl]-N-[(7S,13S)-21-ethyl-24-fluoro-(20M)-20-[2-[(1S)-1-methoxyethyl]-5-(4-methylpiperazin-1-yl)-3-pyridyl]-17,17-dimethyl-8,14-dioxo-15-oxa-4-thia-9,21,27,28-tetrazapentacyclo[17.5.2.1^2,5.1^9,13.0^22,26]octacosa-1(25),2,5(28),19,22(26),23-hexaen-7-yl]-3-methyl-butanamide]	24 nM	237 nM	1980 nM	12 nM	5 nM	< 1 nM	44 nM	44 nM	> 10000 nM
CCn1c(-c2cc(N3CCN(C)CC3)cnc2[C@H](C)OC)c2c3cc(c(F)cc31)-c1csc(n1)C[C@H](NC(=O)[C@H](C(C)C)N(C)C(=O)[C@H]1CCN(C(=O)[C@H](F)Cl)C1)C(=O)N1CCC[C@H](N1)C(=O)OCC(C)(C)C2 (atropisomer, axis not shown; (M)) [Example 32, (3S)-1-[(2R)-2-chloro-2-fluoro-acetyl]-N-[(1S)-1-[[(7S,13S)-21-ethyl-24-fluoro-(20M)-20-[2-[(1S)-1-methoxyethyl]-5-(4-methylpiperazin-1-yl)-3-pyridyl]-17,17-dimethyl-8,14-dioxo-15-oxa-4-thia-9,21,27,28-tetrazapentacyclo[17.5.2.1^2,5.1^9,13.0^22,26]octacosa-1(25),2,5(28),19,22(26),23-hexaen-7-yl]carbamoyl]-2-methyl-propyl]-N-methyl-pyrrolidine-3-carboxamide]	14 nM	792 nM	> 10000 nM	21 nM	1 nM	< 1 nM	430 nM	56 nM	> 10000 nM
CO[C@@H](C)c1ncc(N2CCN(CC(F)(F)F)CC2)cc1-c1c2c3cc(c(F)cc3n1CC(F)(F)F)-c1csc(n1)C[C@H](NC(=O)[C@H](C(C)C)N1CCC3(CN(C(=O)[C@H](F)Cl)C3)C1=O)C(=O)N1CCC[C@H](N1)C(=O)OCC(C)(C)C2 (atropisomer, axis not shown; (M)) [Example 46, (2S)-2-[2-[(2R)-2-chloro-2-fluoro-acetyl]-5-oxo-2,6-diazaspiro[3.4]octan-6-yl]-N-[(7S,13S)-24-fluoro-(20M)-20-[2-[(1S)-1-methoxyethyl]-5-[4-(2,2,2-trifluoroethyl)piperazin-1-yl]-3-pyridyl]-17,17-dimethyl-8,14-dioxo-21-(2,2,2-trifluoroethyl)-15-oxa-4-thia-9,21,27,28-tetrazapentacyclo[17.5.2.1^2,5.1^9,13.0^22,26]octacosa-1(25),2,5(28),19,22(26),23-hexaen-7-yl]-3-methyl-butanamide]	299 nM	300 nM	1230 nM	627 nM	9 nM	3 nM	168 nM	129 nM	1060 nM
CO[C@@H](C)c1ncc(N2CCN(C)CC2)cc1-c1c2c3cc(c(F)cc3n1CC(F)(F)F)-c1csc(n1)C[C@H](NC(=O)[C@H](C(C)C)N(C)C(=O)[C@H]1CCN(C(=O)[C@H](F)Cl)C1)C(=O)N1CCC[C@H](N1)C(=O)OCC(C)(C)C2 (atropisomer, axis not shown; (M)) [Example 2, (3S)-1-[(2R)-2-chloro-2-fluoro-acetyl]-N-[(1S)-1-[[(7S,13S)-24-fluoro-(20M)-20-[2-[(1S)-1-methoxyethyl]-5-(4-methylpiperazin-1-yl)-3-pyridyl]-17,17-dimethyl-8,14-dioxo-21-(2,2,2-trifluoroethyl)-15-oxa-4-thia-9,21,27,28-tetrazapentacyclo[17.5.2.1^2,5.1^9,13.0^22,26]octacosa-1(25),2,5(28),19,22(26),23-hexaen-7-yl]carbamoyl]-2-methyl-propyl]-N-methyl-pyrrolidine-3-carboxamide]	38 nM	822 nM	1860 nM	20 nM	2 nM	2 nM	175 nM	89 nM	3980 nM
CCn1c(-c2cc(N3CCN(C)CC3)cnc2[C@H](C)OC)c2c3cc(c(F)cc31)-c1csc(n1)C[C@H](NC(=O)[C@H](C(C)C)N1CC[C@@]3(CCN(C(=O)[C@H](F)Cl)C3)C1=O)C(=O)N1CCC[C@H](N1)C(=O)OCC(C)(C)C2 (atropisomer, axis not shown; (M)) [Example 30, (2S)-2-[(5R)-7-[(2R)-2-chloro-2-fluoro-acetyl]-1-oxo-2,7-diazaspiro[4.4]nonan-2-yl]-N-[(7S,13S)-21-ethyl-24-fluoro-(20M)-20-[2-[(1S)-1-methoxyethyl]-5-(4-methylpiperazin-1-yl)-3-pyridyl]-17,17-dimethyl-8,14-dioxo-15-oxa-4-thia-9,21,27,28-tetrazapentacyclo[17.5.2.1^2,5.1^9,13.0^22,26]octacosa-1(25),2,5(28),19,22(26),23-hexaen-7-yl]-3-methyl-butanamide]	21 nM	435 nM	> 10000 nM	100 nM	2 nM	< 1 nM	1050 nM	38 nM	> 10000 nM
CO[C@@H](C)c1ncc(N2CCN(CC(F)(F)F)CC2)cc1-c1c2c3cc(c(F)cc3n1CC(F)(F)F)-c1csc(n1)C[C@H](NC(=O)[C@H](C(C)C)N(C)C(=O)[C@H]1CCN(C(=O)[C@H](F)Cl)C1)C(=O)N1CCC[C@H](N1)C(=O)OCC(C)(C)C2 (atropisomer, axis not shown; (M)) [Example 26, (3S)-1-[(2R)-2-chloro-2-fluoro-acetyl]-N-[(1S)-1-[[(7S,13S)-24-fluoro-(20M)-20-[2-[(1S)-1-methoxyethyl]-5-[4-(2,2,2-trifluoroethyl)piperazin-1-yl]-3-pyridyl]-17,17-dimethyl-8,14-dioxo-21-(2,2,2-trifluoroethyl)-15-oxa-4-thia-9,21,27,28-tetrazapentacyclo[17.5.2.1^2,5.1^9,13.0^22,26]octacosa-1(25),2,5(28),19,22(26),23-hexaen-7-yl]carbamoyl]-2-methyl-propyl]-N-methyl-pyrrolidine-3-carboxamide]	15 nM	260 nM	954 nM	14 nM	7 nM	1 nM	34 nM	46 nM	> 10000 nM
